Experimental data reported in ChEMBL document CHEMBL5715954, “Silencing c-Myc translation as a therapeutic strategy through targeting PI3Kδ and CK1ε in hematological malignancies” (Blood, 2017).

Legend:
Parameters in all cases: scale not given: the % may be the effect or the level left
[1] = molecular target: Tyrosine-protein kinase Yes (Homo sapiens) (UniProt P07947); experiment: Inhibition of human YES assessed as enzyme activity at 1 uM using poly[Glu:Tyr] (4:1) as substrate preincubated for 20 mins followed by [gamma-33P]-ATP addition and measured after 120 mins by radiometric Hot-SpotSM Kinase assay relative to control
[2] = molecular target: Tau-tubulin kinase 1 (Homo sapiens) (UniProt Q5TCY1); experiment: Inhibition of human TTBK1 assessed as enzyme activity at 1 uM using myelin basic protein as substrate preincubated for 20 mins followed by [gamma-33P]-ATP addition and measured after 120 mins by radiometric Hot-SpotSM Kinase assay relative to control
[3] = molecular target: Tyrosine-protein kinase Lyn (Homo sapiens) (UniProt P07948); experiment: Inhibition of human LYN assessed as enzyme activity at 1 uM using poly[Glu:Tyr] (4:1) as substrate preincubated for 20 mins followed by [gamma-33P]-ATP addition and measured after 120 mins by radiometric Hot-SpotSM Kinase assay relative to control
[4] = molecular target: T1, Kinase suppressor of Ras 2 (Homo sapiens) (UniProt Q6VAB6); experiment: Inhibition of human KSR2 assessed as enzyme activity at 1 uM using KRREILSRRPSYR as substrate preincubated for 20 mins followed by [gamma-33P]-ATP addition and measured after 120 mins by radiometric Hot-SpotSM Kinase assay relative to control
T1 sequence (whole entry): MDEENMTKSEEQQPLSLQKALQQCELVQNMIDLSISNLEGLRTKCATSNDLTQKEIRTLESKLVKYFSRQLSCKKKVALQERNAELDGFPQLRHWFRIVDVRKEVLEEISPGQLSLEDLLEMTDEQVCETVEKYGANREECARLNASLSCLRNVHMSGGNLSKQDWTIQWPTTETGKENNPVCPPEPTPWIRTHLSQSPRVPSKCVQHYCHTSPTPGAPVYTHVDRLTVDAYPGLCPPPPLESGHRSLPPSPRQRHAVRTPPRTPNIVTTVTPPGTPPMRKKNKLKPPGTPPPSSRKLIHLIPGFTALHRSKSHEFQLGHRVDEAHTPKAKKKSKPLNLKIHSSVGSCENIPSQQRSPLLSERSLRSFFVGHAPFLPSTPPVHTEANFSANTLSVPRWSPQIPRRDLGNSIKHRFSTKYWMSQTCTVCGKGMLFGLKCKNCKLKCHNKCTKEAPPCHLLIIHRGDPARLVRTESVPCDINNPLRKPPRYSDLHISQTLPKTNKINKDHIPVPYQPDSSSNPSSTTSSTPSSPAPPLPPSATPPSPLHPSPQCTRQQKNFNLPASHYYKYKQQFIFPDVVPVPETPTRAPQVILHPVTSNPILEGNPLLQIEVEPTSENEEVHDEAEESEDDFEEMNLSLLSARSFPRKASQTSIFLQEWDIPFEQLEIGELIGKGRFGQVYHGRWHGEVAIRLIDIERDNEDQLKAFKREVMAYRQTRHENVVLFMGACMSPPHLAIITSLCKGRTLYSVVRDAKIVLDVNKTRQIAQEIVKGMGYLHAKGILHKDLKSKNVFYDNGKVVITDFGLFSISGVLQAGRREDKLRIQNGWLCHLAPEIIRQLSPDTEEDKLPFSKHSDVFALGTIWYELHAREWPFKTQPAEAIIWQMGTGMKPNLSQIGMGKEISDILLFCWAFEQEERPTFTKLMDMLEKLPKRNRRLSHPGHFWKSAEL

[5] = molecular target: CDK18/Cyclin Y (Homo sapiens) (UniProt Q07002+Q8ND76); experiment: Inhibition of human CDK18/cyclin Y assessed as enzyme activity at 1 uM using RB Protein as substrate preincubated for 20 mins followed by [gamma-33P]-ATP addition and measured after 120 mins by radiometric Hot-SpotSM Kinase assay relative to control; format: protein-complex assay
[6] = molecular target: LIM domain kinase 2 (Homo sapiens) (UniProt P53671); experiment: Inhibition of human LIMK2 assessed as enzyme activity at 1 uM using cofilin 2 as substrate preincubated for 20 mins followed by [gamma-33P]-ATP addition and measured after 120 mins by radiometric Hot-SpotSM Kinase assay relative to control
[7] = molecular target: Fibroblast growth factor receptor 4 (Homo sapiens) (UniProt P22455); experiment: Inhibition of human FGFR4 assessed as enzyme activity at 1 uM using poly[Glu:Tyr] (4:1) as substrate preincubated for 20 mins followed by [gamma-33P]-ATP addition and measured after 120 mins by radiometric Hot-SpotSM Kinase assay relative to control
[8] = molecular target: Mitogen-activated protein kinase 10 (Homo sapiens) (UniProt P53779); experiment: Inhibition of human JNK3 assessed as enzyme activity at 1 uM using ATF2 as substrate preincubated for 20 mins followed by [gamma-33P]-ATP addition and measured after 120 mins by radiometric Hot-SpotSM Kinase assay relative to control
[9] = molecular target: Cyclin-dependent kinase 2/cyclin E1 (Homo sapiens) (UniProt P24864+P24941); experiment: Inhibition of human CDK2/cyclin E assessed as enzyme activity at 1 uM using RB Protein as substrate preincubated for 20 mins followed by [gamma-33P]-ATP addition and measured after 120 mins by radiometric Hot-SpotSM Kinase assay relative to control; format: protein-complex assay
[10] = molecular target: T2, Serine/threonine-protein kinase 17A (Homo sapiens) (UniProt Q9UEE5); experiment: Inhibition of human DRAK1/STK17A assessed as enzyme activity at 1 uM using KKLNRTLSFAEPG as substrate preincubated for 20 mins followed by [gamma-33P]-ATP addition and measured after 120 mins by radiometric Hot-SpotSM Kinase assay relative to control
T2 sequence (whole entry): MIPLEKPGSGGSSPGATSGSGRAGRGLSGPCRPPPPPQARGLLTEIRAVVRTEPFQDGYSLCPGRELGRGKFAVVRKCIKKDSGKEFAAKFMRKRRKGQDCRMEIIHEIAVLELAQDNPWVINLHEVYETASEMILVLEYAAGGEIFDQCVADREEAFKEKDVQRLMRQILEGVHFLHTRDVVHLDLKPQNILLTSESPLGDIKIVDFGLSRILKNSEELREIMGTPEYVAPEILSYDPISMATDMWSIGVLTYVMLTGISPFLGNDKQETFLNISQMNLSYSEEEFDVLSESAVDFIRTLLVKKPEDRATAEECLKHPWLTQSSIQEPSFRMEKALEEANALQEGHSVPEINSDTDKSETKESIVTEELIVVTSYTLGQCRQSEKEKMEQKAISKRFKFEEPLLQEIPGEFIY

[11] = molecular target: SRSF protein kinase 1 (Homo sapiens) (UniProt Q96SB4); experiment: Inhibition of human SRPK1 assessed as enzyme activity at 1 uM using GRSRSRSRSR as substrate preincubated for 20 mins followed by [gamma-33P]-ATP addition and measured after 120 mins by radiometric Hot-SpotSM Kinase assay relative to control
SRSF protein kinase 1 (Homo sapiens), sequence (Q96SB4 whole entry): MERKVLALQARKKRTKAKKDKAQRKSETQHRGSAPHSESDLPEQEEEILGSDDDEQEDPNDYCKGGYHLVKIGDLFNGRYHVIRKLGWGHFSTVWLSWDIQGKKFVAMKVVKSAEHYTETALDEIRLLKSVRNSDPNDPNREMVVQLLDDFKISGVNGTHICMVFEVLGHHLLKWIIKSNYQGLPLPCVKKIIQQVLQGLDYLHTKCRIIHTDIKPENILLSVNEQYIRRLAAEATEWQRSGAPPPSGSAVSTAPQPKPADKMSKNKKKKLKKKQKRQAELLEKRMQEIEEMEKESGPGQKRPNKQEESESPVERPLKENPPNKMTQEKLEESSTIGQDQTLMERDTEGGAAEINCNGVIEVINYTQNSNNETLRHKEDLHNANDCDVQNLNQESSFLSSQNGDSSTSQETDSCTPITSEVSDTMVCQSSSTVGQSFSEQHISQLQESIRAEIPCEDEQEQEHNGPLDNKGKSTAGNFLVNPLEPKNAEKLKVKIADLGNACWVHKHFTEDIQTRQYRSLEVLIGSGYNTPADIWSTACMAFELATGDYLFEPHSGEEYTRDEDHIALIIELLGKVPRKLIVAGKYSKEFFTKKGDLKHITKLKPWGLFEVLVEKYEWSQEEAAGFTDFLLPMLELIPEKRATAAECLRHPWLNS

Mitogen-activated protein kinase 10 (Homo sapiens), sequence (P53779 whole entry): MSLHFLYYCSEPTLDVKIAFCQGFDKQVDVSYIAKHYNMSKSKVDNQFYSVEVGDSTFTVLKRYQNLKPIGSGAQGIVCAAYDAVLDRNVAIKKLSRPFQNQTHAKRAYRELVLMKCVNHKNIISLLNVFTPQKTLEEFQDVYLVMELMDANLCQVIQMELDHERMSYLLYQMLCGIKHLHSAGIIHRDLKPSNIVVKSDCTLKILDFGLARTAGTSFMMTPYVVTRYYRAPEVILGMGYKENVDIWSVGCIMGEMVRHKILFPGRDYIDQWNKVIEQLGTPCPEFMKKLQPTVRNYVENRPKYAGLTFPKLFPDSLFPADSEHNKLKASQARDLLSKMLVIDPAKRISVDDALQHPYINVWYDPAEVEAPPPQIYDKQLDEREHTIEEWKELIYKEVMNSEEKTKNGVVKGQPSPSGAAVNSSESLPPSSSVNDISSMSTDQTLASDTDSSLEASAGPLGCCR
LIM domain kinase 2 (Homo sapiens), sequence (P53671 whole entry, looked up, the tested form may be a part): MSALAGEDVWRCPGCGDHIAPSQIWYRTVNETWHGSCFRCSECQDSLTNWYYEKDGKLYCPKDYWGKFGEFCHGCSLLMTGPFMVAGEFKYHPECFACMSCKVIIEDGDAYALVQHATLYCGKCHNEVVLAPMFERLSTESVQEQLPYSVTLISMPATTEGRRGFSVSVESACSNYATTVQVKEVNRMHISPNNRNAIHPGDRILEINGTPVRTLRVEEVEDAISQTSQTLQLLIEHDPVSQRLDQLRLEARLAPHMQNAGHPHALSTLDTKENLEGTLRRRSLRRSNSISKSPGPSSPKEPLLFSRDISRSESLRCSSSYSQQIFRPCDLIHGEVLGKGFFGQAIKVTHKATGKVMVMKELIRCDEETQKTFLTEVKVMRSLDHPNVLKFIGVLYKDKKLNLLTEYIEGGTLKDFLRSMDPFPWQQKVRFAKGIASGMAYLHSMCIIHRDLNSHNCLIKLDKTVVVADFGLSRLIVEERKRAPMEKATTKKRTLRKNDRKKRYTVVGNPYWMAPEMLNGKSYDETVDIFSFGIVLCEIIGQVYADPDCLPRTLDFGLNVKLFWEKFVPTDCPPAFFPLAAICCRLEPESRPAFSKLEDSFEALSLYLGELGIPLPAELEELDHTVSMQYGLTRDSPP
Fibroblast growth factor receptor 4 (Homo sapiens), sequence (P22455 22-802 limits assumed): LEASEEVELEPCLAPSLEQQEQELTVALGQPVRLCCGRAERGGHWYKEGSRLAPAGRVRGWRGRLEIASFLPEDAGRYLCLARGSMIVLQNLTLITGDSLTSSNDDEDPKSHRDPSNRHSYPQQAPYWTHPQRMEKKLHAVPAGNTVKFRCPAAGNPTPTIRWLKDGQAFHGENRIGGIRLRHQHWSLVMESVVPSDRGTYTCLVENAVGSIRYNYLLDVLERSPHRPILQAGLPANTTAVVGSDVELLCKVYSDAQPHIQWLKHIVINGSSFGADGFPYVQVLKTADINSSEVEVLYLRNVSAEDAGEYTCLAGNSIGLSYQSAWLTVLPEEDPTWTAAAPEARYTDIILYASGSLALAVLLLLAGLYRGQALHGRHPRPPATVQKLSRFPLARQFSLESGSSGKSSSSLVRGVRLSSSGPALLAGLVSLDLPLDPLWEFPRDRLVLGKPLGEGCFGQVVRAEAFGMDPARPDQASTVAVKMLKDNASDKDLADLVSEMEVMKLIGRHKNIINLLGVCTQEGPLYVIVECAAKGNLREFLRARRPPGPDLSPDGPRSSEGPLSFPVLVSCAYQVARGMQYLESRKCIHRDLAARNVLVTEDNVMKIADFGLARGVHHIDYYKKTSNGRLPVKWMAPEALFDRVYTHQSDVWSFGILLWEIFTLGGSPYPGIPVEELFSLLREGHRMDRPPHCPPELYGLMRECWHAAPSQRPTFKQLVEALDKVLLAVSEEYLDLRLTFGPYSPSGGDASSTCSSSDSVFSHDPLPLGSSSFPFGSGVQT
Tyrosine-protein kinase Lyn (Homo sapiens), sequence (P07948 2-512 limits assumed): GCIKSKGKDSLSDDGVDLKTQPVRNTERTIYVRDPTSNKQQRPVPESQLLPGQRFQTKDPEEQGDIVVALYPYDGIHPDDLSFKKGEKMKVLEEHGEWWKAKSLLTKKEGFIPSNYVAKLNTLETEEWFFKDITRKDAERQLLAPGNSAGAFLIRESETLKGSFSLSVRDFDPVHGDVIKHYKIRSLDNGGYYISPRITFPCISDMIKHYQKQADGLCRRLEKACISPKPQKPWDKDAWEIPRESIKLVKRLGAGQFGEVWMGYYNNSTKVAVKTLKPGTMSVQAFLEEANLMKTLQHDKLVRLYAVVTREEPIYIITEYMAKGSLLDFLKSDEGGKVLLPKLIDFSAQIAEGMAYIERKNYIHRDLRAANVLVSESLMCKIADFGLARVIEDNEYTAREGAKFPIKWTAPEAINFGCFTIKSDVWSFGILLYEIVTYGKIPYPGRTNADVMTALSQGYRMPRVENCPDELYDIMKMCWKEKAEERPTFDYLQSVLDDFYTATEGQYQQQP
Tau-tubulin kinase 1 (Homo sapiens), sequence (Q5TCY1 whole entry): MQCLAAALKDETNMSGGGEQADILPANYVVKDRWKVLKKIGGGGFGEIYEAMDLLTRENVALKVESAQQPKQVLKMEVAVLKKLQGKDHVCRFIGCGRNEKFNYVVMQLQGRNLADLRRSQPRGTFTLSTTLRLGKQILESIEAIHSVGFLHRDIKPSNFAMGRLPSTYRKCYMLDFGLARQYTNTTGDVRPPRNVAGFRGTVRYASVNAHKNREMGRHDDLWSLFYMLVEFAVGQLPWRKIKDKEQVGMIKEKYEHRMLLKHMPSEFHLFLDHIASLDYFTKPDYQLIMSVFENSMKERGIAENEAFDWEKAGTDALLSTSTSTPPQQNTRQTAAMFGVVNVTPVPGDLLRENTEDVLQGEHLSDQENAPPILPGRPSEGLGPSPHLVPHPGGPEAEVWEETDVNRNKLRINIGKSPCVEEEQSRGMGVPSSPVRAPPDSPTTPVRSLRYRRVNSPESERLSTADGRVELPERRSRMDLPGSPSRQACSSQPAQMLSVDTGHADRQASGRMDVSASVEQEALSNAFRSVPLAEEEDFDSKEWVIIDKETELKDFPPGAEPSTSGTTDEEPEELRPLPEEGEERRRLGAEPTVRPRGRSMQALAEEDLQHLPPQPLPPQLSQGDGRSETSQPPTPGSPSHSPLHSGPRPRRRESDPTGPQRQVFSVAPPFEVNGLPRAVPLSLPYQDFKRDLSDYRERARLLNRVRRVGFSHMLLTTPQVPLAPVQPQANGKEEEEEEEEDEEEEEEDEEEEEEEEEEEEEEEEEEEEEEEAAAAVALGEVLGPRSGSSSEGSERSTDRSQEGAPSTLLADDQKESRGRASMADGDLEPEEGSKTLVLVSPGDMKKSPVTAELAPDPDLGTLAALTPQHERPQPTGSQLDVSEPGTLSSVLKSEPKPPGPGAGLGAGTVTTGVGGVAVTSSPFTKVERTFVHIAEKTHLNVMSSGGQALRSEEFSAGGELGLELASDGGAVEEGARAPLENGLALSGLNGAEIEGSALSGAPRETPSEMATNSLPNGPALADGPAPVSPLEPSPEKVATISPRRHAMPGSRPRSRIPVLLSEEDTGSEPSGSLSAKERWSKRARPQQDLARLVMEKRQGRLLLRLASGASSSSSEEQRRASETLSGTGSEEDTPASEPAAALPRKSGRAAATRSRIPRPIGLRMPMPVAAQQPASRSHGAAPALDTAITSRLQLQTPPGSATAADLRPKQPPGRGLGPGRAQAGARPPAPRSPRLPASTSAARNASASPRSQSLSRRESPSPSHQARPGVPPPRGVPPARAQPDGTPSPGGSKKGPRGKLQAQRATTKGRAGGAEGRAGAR
Tyrosine-protein kinase Yes (Homo sapiens), sequence (P07947 2-543 limits assumed): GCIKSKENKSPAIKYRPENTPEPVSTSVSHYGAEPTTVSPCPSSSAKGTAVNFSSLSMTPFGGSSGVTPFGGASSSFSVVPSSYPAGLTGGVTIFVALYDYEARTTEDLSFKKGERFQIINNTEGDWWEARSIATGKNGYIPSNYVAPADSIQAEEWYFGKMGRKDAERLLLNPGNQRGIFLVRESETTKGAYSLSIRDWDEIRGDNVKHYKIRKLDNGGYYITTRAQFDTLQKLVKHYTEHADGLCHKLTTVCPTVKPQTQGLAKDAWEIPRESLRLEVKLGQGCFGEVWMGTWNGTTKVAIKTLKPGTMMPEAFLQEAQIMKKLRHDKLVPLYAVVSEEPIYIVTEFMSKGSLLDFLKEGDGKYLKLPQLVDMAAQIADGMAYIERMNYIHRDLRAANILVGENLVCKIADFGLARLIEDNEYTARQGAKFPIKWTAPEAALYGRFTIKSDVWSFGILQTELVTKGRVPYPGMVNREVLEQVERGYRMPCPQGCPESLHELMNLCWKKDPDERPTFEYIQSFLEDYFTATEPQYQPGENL

Compound	Activity [1] [%]	Activity [2] [%]	Activity [3] [%]	Activity [4] [%]	Activity [5] [%]	Activity [6] [%]	Activity [7] [%]	Activity [8] [%]	Activity [9] [%]	Activity [10] [%]	Activity [11] [%]
CC[C@H](Nc1ncnc2[nH]cnc12)c1nc2cccc(F)c2c(=O)n1-c1ccccc1	93.1	95.8	95	95	85.7	96	97.3	96	96.2	95.1	92.7
CC(C)Oc1ccc(-c2nn([C@@H](C)c3oc4ccc(F)cc4c(=O)c3-c3cccc(F)c3)c3ncnc(N)c23)cc1F [UMBRALISIB]	93.5	103	96.4	96.2	94.6	98.6	93.2	95.6	99	92.4	90.6
C[C@H](Nc1ncnc2nc[nH]c12)c1cc2cccc(Cl)c2c(=O)n1-c1ccccc1	94.2	97.8	100	91.4	100	104	94.5	96.6	95.6	95.4	94
